“And” between values parts separate entries of the source, which are not always exact repeats. Equal values may be shown once. Read-outs that look alike come from different tables or passages of the source. Marks after values point to notes of the source that are not given here.
How the values were obtained:
[1] = Simulation of intestinal absorption using a dialysis membrane (3 kDa) after in vitro SGD
Source text: HPLC-grade methanol, water, and acetonitrile were supplied by Fisher Scientific Chemicals. The enzymes α-amylase (A1031), pepsin from porcine stomach mucosa (P7012), pancreatin from porcine pancreas (P7545), and bile salts (B863) were purchased from Sigma-Aldrich (Taufkirchen, Germany). The rabbit gastric extract (RGE15) with gastric lipase activity was purchased from Lipolytech (Marseille, France). The ethanol was purchased from Merck (Algés, Portugal). A dialysis membrane with a molecular pore size of 3 kDa was purchased from Spectra/Pro (Spectrum Lab, Breda, Netherlands).
(§1) Mouth digestion of each PC solution (1 mL) was diluted in 0.8 mL of simulated salivary fluid (SSF) and α-amylase (75 U mL-1). Then, the mixture was incubated for 2 min at 37 °C under agitation (200 rpm). In order to start gastric digestion, pH was adjusted to 3.0 using 1 M aqueous HCl and then, a pepsin solution (2000 U mL-1) and simulated gastric fluid (SGF) were added. Subsequently, the mixture was incubated for 2h, at 37 °C and 130 rpm orbital agitation for the stomach digestion. Finally, the small intestine digestion simulation was performed after pH adjustment to 7.0 using 1 M aqueous […] and the addition of pancreatin (100 U mL-1), bile salts solution (10 mM) and simulated intestinal fluid (SIF), during 2 h, at 37 °C with 45 rpm orbital agitation. Natural small intestine absorption was also simulated, by placing the remaining sample in a dialysis membrane, and immersed in distilled water overnight at room temperature.
Furthermore, to determine the intestinal absorption, the aliquots collected inside the dialysis membrane were analyzed. The concentration of these samples (from inside of the membrane) corresponds to the amount of each PC that has not passed through to the outside of the membrane.
(§2) The values of B% and IA% were the average of the three replicates performed, with the calculated standard deviation.

[2] = In vitro simulated gastrointestinal digestion (SGD, INFOGEST 2.0): concentration and bioaccessibility by UHPLC-DAD-MSn; details: for Bioaccessibility (%), initial solution (IS): reference
Procedure: Preliminary solubility tests in different solvents, namely water, sodium phosphate buffer (26.8 mM, pH 6.1), ethanol, and also a mixture of ethanol with both water and sodium phosphate buffer, were carried out for each PC (data not shown), to prevent erroneous data arising from compounds precipitation. Ethanol percentages used in these preliminary solubility tests were 10, 15, and 20% (v/v).
Each PC solubilized in ethanol:water (15% v/v) was then submitted to an in vitro SGD (INFOGEST 2.0), according to a standardized protocol (Fig. 2). In order to determine whether the interaction between the compounds and enzymes led to an underestimation of their content, each PC solution was submitted to the same digestion procedure, replacing the enzyme solutions with water, which were designed as controls, henceforth this will be the term used. Each sample and control were submitted to three independent in vitro digestion simulations, and after each digestion phase, a sample/control was collected and further analyzed and quantified by UHPLC-DAD-MSn.
as §1
At each sampling point, an aliquot (0.5 mL) from each of the three replicates was collected. The enzymatic activity was stopped immediately by adding pure methanol to each aliquot (1:1, v/v) to promote enzyme precipitation and subsequently centrifuged at 10 000 g and 4 °C for 5 min. The supernatants were filtered with a 0.2 μm nylon filter. To determine the concentration of each sample or control, it was considered the following dilution factor – 1:2, 1:4 and 1:8 for oral, gastric and intestinal digestion phase, respectively.
The bioaccessibility percentage (B%) of each PC was calculated using equation (1):(1) B(%)=[DS]/[IS]×100 where IS is the initial concentration of PCs in ethanol:water (15% v/v) solutions, DS is the concentration of each collected sample or control (without enzymes).
as §2
PCs were analyzed in a UHPLC system equipped with a variable loop Accela autosampler (set at 16 °C), an Accela 600 LC pump, and an Accela 80 Hz photo diode array detector (DAD) (Thermo Fisher Scientific, San Jose, CA, USA). Each sample was prepared in methanol:water (1:1, v/v) and filtered through a 0.2 μm nylon syringe filter. […] The mobile phase was composed of acetonitrile (A) and water:acetonitrile (99:1, v/v) (B), both with 0.1 % of formic acid. The gradient elution was performed as follows: 0–1min: 99% B; 1–17 min: 99-73% B, 17–20 min: 73-0% B, 20–25 min: 0–99% B, followed by re-equilibration of the column at 99% B for 4 min.

Caco-2 cell monolayers = details: Caco-2; ref Tourniaiere et al. (2005); cited from earlier work
[3] = controls (without enzymes), gastric phase
[4] = controls (without enzymes), initial solution
[5] = controls (without enzymes), intestinal phase
[6] = controls (without enzymes), oral phase
[7] = samples with enzymes, after gastric digestion pH 3.0
[8] = samples with enzymes, after intestinal digestion pH 7.0
[9] = samples with enzymes, after oral digestion
[10] = samples with enzymes, gastric phase
[11] = samples with enzymes, intestinal phase
[12] = samples with enzymes, oral phase
[13] = samples, initial ethanol:water (15% v/v) solution

O=c1c(-c2ccc(O)cc2)coc2cc(O)ccc12 [DAID, daidzein]
Concentration, dialysis phase (D) [1]: below the detection limit
Bioaccessibility (%), gastric phase (G) [2, 3]: 70.95% and 70.95 ± 3.71 ^a %
Concentration, gastric phase (G) [2, 3]: 12.89 ± 0.67 µg/mL
Concentration, initial solution (IS) [2, 4]: 18.17 µg/mL
Bioaccessibility (%), initial solution (IS) [2, 4]: 100^ a %
Bioaccessibility (%), intestinal phase (I) [2, 5]: 138.68% and 138.68 ± 9.01^ a %
Concentration, intestinal phase (I) [2, 5]: 25.20 ± 1.64 µg/mL
Bioaccessibility (%), oral phase (O) [2, 6]: 78.35% and 78.35 ± 24.88^ a %
Concentration, oral phase (O) [2, 6]: 14.24 ± 4.52 µg/mL
Concentration, gastric phase (G) [2, 7]: 14.86 ± 1.98 µg/mL
Concentration, intestinal phase (I) [2, 8]: 28.72 ± 2.03 µg/mL
Concentration, oral phase (O) [2, 9]: 21.63 ± 5.52 µg/mL
Bioaccessibility (%), gastric phase (G) [2, 10]: 81.78% and 81.78 ± 10.87 ^a %
Bioaccessibility (%), intestinal phase (I) [2, 11]: 158.08% and 158.08 ± 11.20^ a %
Bioaccessibility (%), oral phase (O) [2, 12]: 119.06% and 119.06 ± 30.41^ a %
Concentration, initial solution (IS) [2, 13]: 18.17 µg/mL
Bioaccessibility (%), initial solution (IS) ([2]; samples, initial solution): 100^ a %

O=c1oc2c(O)c(O)cc3c(=O)oc4c(O)c(O)cc1c4c23 [EA, ellagic acid]
Concentration, dialysis phase (D) [1]: below the detection limit
Intestinal absorption (IA%) [1]: very high
Concentration, intestinal phase (I) [2, 8]: 5.20 ± 0.10 µg/mL
Concentration, oral phase (O) [2, 9]: 4.78 ± 1.75 µg/mL

O=C(O[C@@H]1Cc2c(O)cc(O)cc2O[C@@H]1c1cc(O)c(O)c(O)c1)c1cc(O)c(O)c(O)c1 [EGCG, epigallocatechin-3-O-gallate]
Concentration, dialysis phase (D) [1]: below the detection limit
Intestinal absorption (IA%) [1]: very high
Bioaccessibility (%), oral phase (O) ([2]; 2 min): 38.16 ± 12.23^ b %
Bioaccessibility (%), gastric phase (G) [2, 3]: 61.53% and 61.53 ± 5.39 ^b %
Concentration, gastric phase (G) [2, 3]: 1272.99 ± 111.59 µg/mL
Concentration, initial solution (IS) [2, 4]: 2068.93 µg/mL
Bioaccessibility (%), initial solution (IS) [2, 4]: 100^ a %
Bioaccessibility (%), intestinal phase (I) [2, 5]: 5.03% and 5.03 ± 0.81 ^d %
Concentration, intestinal phase (I) [2, 5]: 104.15 ± 16.86 µg/mL
Bioaccessibility (%), oral phase (O) [2, 6]: 34.13% and 34.13 ± 1.91 ^c %
Concentration, oral phase (O) [2, 6]: 706.03 ± 39.46 µg/mL
Concentration, gastric phase (G) [2, 7]: 1473.22 ± 65.28 µg/mL
Concentration, intestinal phase (I) [2, 8]: 312.22 ± 46.76 µg/mL
Concentration, oral phase (O) [2, 9]: 789.50 ± 253.03 µg/mL
Bioaccessibility (%), gastric phase (G) [2, 10]: 71.21% and 71.21 ± 3.16 ^a %
Bioaccessibility (%), intestinal phase (I) [2, 11]: 15.09% and 15.09 ± 2.26 ^b %
Bioaccessibility (%), oral phase (O) [2, 12]: 38.16%
Concentration, initial solution (IS) [2, 13]: 2068.93 µg/mL
Bioaccessibility (%), initial solution (IS) ([2]; samples, initial solution): 100^ a %

O=C1C[C@@H](c2ccc(O)cc2)Oc2cc(O)cc(O)c21 [NAR, (+)-naringenin]
Concentration, dialysis phase (D) [1]: 3.29 ± 0.96 µg/mL
Concentration, dialysis phase (D) ([1]; pig): 17.50 ± 3.80 µg/mL
Bioaccessibility (%), oral phase (O) ([2]; 2 min): 97.26 ± 5.50%
Bioaccessibility (%), gastric phase (G) [2, 3]: 84.37% and 84.37 ± 4.60%
Concentration, gastric phase (G) [2, 3]: 301.86 ± 16.45 µg/mL
Concentration, initial solution (IS) [2, 4]: 357.76 µg/mL
Bioaccessibility (%), initial solution (IS) [2, 4]: 100%
Bioaccessibility (%), intestinal phase (I) [2, 5]: 68.99% and 68.99 ± 33.64%
Concentration, intestinal phase (I) [2, 5]: 246.82 ± 120.35 µg/mL
Bioaccessibility (%), oral phase (O) [2, 6]: 102.62% and 102.62 ± 1.12%
Concentration, oral phase (O) [2, 6]: 367.13 ± 4.00 µg/mL
Concentration, gastric phase (G) [2, 7]: 282.96 ± 24.94 µg/mL
Concentration, intestinal phase (I) [2, 8]: 233.10 ± 102.39 µg/mL
Concentration, oral phase (O) [2, 9]: 347.95 ± 19.67 µg/mL
Bioaccessibility (%), gastric phase (G) [2, 10]: 79.09% and 79.09 ± 6.97%
Bioaccessibility (%), intestinal phase (I) [2, 11]: 65.15% and 65.15 ± 28.62%
Bioaccessibility (%), oral phase (O) [2, 12]: 97.26%
Concentration, initial solution (IS) [2, 13]: 357.76 µg/mL
Bioaccessibility (%), initial solution (IS) ([2]; samples, initial solution): 100%

C[C@@H]1O[C@@H](O[C@H]2[C@H](Oc3cc(O)c4c(c3)O[C@H](c3ccc(O)cc3)CC4=O)O[C@H](CO)[C@@H](O)[C@@H]2O)[C@H](O)[C@H](O)[C@H]1O [NARN, naringin]
Papp value of apical to basolateral direction (Caco-2 cell monolayers): low
Concentration, dialysis phase (D) [1]: 4.46 ± 0.44 µg/mL
Concentration, dialysis phase (D) ([1]; pig): 17.29 ± 1.75 µg/mL
Bioaccessibility (%), oral phase (O) ([2]; 2 min): 133.20 ± 16.03^ a %
Concentration, oral phase (O) ([2]; 2 min): 334.93 ± 40.32 µg/mL
Bioaccessibility (%), gastric phase (G) [2, 3]: 132.25 ± 6.73^ a %
Concentration, gastric phase (G) [2, 3]: 332.53 ± 16.91 µg/mL
Concentration, initial solution (IS) [2, 4]: 251.44 µg/mL
Bioaccessibility (%), initial solution (IS) [2, 4]: 100 ^a %
Concentration, intestinal phase (I) [2, 5]: 319.15 ± 27.85 µg/mL
Bioaccessibility (%), oral phase (O) [2, 6]: 128.18 ± 14.55^ a %
Concentration, oral phase (O) [2, 6]: 322.30 ± 36.59 µg/mL
Concentration, gastric phase (G) [2, 7]: 365.14 ± 71.37 µg/mL
Concentration, intestinal phase (I) [2, 8]: 351.21 ± 53.27 µg/mL
Bioaccessibility (%), gastric phase (G) [2, 10]: 145.2% and 145.22 ± 28.38^ a %
Bioaccessibility (%), intestinal phase (I) [2, 11]: 139.68% and 139.68 ± 21.19^ a %
Bioaccessibility (%), oral phase (O) [2, 12]: 133.2%
Concentration, initial solution (IS) [2, 13]: 251.44 µg/mL
Bioaccessibility (%), initial solution (IS) ([2]; samples, initial solution): 100 ^a %

Oc1cc(O)cc(O)c1 [PG, phloroglucinol]
Concentration, dialysis phase (D) [1]: 225.29 ± 125.33 µg/mL
Concentration, dialysis phase (D) ([1]; pig): 555.31 ± 145.46 µg/mL
Bioaccessibility (%), oral phase (O) ([2]; 2 min): 92.78 ± 5.91^ b %
Bioaccessibility (%), gastric phase (G) [2, 3]: 91.32% and 91.32 ± 3.79 ^a %
Concentration, gastric phase (G) [2, 3]: 4765.51 ± 197.78 µg/mL
Concentration, initial solution (IS) [2, 4]: 5218 µg/mL
Bioaccessibility (%), initial solution (IS) [2, 4]: 100 ^a %
Bioaccessibility (%), intestinal phase (I) [2, 5]: 94.91% and 94.91 ± 5.32 ^a %
Concentration, intestinal phase (I) [2, 5]: 4952.79 ± 277.44 µg/mL
Bioaccessibility (%), oral phase (O) [2, 6]: 94.08% and 94.08 ± 1.84 ^a %
Concentration, oral phase (O) [2, 6]: 4909.58 ± 96.26 µg/mL
Concentration, gastric phase (G) [2, 7]: 4910.12 ± 200.81 µg/mL
Concentration, intestinal phase (I) [2, 8]: 8339.90 ± 994.21 µg/mL
Concentration, oral phase (O) [2, 9]: 4841.66 ± 308.60 µg/mL
Bioaccessibility (%), gastric phase (G) [2, 10]: 94.09% and 94.09 ± 3.85^ b %
Bioaccessibility (%), intestinal phase (I) [2, 11]: 159.82% and 159.82 ± 19.05^ a %
Bioaccessibility (%), oral phase (O) [2, 12]: 92.78%
Concentration, initial solution (IS) [2, 13]: 5218 µg/mL
Bioaccessibility (%), initial solution (IS) ([2]; samples, initial solution): 100^ b %
